The source of these data is US12060335B1, “2-(benzo[d]oxazol-2-yl)-N′-(3,5-dichlorobenzoyloxy)acetimidamide as an antimicrobial compound” (KING FAISAL UNIVERSITY, priority 2023, dated 2024).

One series deals with Bacillus Cereus. The series can be described thus: Agar plate disc-diffusion, antibacterial activity by measuring inhibition zone. It is filed as cell-based. The following applies: Gram positive, nutrient agar, 37° C., 48 hours. On the procedure: (§1) The agar plate disc-diffusion method was applied. […] The discs were then placed onto the surface of agar plates (nutrient agar for bacteria and Sabouraud's dextrose agar for fungi) seeded with the test organism. Each plate contained 15 mL of the agar medium, previously seeded with 0.2 mL of the broth culture of each organism pregrown for 18 hours. The plates were incubated at 37° C. for 48 hours, and 72 hours for fungi. The inhibition zones was measured in mm. Discs impregnated with DMSO were used as a control, and its inhibition zone was subtracted from the tested compound actual inhibition zone.
On the technique in general: Agar diffusion results depend on both activity and mobility in agar.

A further series concerns Staphylococcus aureus. Described as above. The format is cell-based. The following applies: Gram positive, nutrient agar, 37° C., 48 hours. How it is done:
as §1

The subject of the next series is Escherichia coli. Described as above. The format is cell-based. The following applies: Gram negative, nutrient agar, 37° C., 48 hours. On the procedure: (§2) The agar plate disc-diffusion method was applied. Sterilized filter papers (6 mm in diameter) were wetted with 10 μL of a solution 2-(benzo[d]oxazol-2-yl)-N′-(3,5-dichlorobenzoyloxy)acetimidamide (3) to be tested, containing 10 mg/mL in DMSO, and the discs were allowed to air dry. The discs were then placed onto the surface of agar plates (nutrient agar for bacteria and Sabouraud's dextrose agar for fungi) seeded with the test organism. Each plate contained 15 mL of the agar medium, previously seeded with 0.2 mL of the broth culture of each organism pregrown for 18 hours. The plates were incubated at 37° C. for 48 hours, and 72 hours for fungi. The inhibition zones was measured in mm. Discs impregnated with DMSO were used as a control, and its inhibition zone was subtracted from the tested compound actual inhibition zone.

A further series has as its system Pseudomonas aeruginosa. The series is described as above. It is filed as cell-based. The following applies: Gram negative, nutrient agar, 37° C., 48 hours. On the procedure:
as §2

Another series deals with Aspergillus flavus. The series can be described thus: Agar plate disc-diffusion, antifungal activity by measuring inhibition zone. It is filed as cell-based. As to conditions: Sabouraud's dextrose agar, 72 hours. On the procedure:
as §1

Series [1] deals with Chrysosporium keratinophilum. The series is described as above. It is filed as cell-based. As to conditions: Sabouraud's dextrose agar, 72 hours. How it is done:
as §1

The test system of another series is different microbes. The series can be described thus: Antimicrobial activity screen, overall statement. The format is cell-based. As to conditions: against different microbes (bacteria and fungi of Tables 1 and 2). How it is done:
as §2

Where [2] appears, read: A = concentration of comp. = 10,000 μL.
[3] abbreviates: B = concentration of comp. = 30,000 μL.
Setting [4] is: C = concentration of comp. = 50,000 μL.

One may read the melting point as the temperature, or range, at which the solid turns liquid.

As for `O=C(O)c1cn(C2CC2)c2cc(N3CCNCC3)c(F)cc2c1=O` [Cip., ciprofloxacin, reference compound], the inhibition zone with Bacillus Cereus (setting [2]) came out at 29 mm; in the series with Bacillus Cereus (setting [3]) it was 30 mm; with Bacillus Cereus (C =), 42 mm; in the series with Staphylococcus aureus (setting [2]), 43 mm; with Staphylococcus aureus (setting [3]), 44 mm; in the series on Staphylococcus aureus (setting [4]) it was 53 mm. The inhibition zone in the series on Escherichia coli (setting [2]) is on record as 30 mm; in the series on Escherichia coli (setting [3]), 39 mm; in the series on Escherichia coli (setting [4]) it was 60 mm; in the series with Pseudomonas aeruginosa (setting [2]), 29 mm; in the series with Pseudomonas aeruginosa (setting [3]), 30 mm; in the series with Pseudomonas aeruginosa (C =) it was 53 mm. Also, the inhibition zone with Aspergillus flavus (setting [2]) was 29 mm; in the series on Aspergillus flavus (setting [3]) it was 30 mm; in the series with Aspergillus flavus (setting [4]), 42 mm; in series [1] (setting [2]), 29 mm; in series [1] (setting [3]), 30 mm; in series [1] (setting [4]), 53 mm.
`N/C(Cc1nc2ccccc2o1)=N\OC(=O)c1cc(Cl)cc(Cl)c1` [Compound 3, 2-(benzo[d]oxazol-2-yl)-N′-(3,5-dichlorobenzoyloxy)acetimidamide] gave a melting point of 158 to 159 °C. The molecule also gave an inhibition zone in the series with Bacillus Cereus (setting [2]) of 20 mm. The inhibition zone with Bacillus Cereus (setting [3]) is 22 mm. This molecule also gave an inhibition zone in the series on Bacillus Cereus (C =) of 30 mm. This molecule showed an inhibition zone with Staphylococcus aureus (setting [2]) of 19 mm. In the series with Staphylococcus aureus (setting [3]), this molecule showed an inhibition zone of 21 mm. In addition, the inhibition zone in the series on Staphylococcus aureus (setting [4]) amounted to 29 mm. Moreover, the inhibition zone in the series with Escherichia coli (setting [2]) is on record as 26 mm. For the same molecule, the inhibition zone in the series with Escherichia coli (setting [3]) is 34 mm. The molecule further showed an inhibition zone with Escherichia coli (setting [4]) of 46 mm. For the same molecule, the inhibition zone with Pseudomonas aeruginosa (setting [2]) was determined as 25 mm. The inhibition zone in the series on Pseudomonas aeruginosa (setting [3]) was found to be 27 mm. Also, the inhibition zone in the series with Pseudomonas aeruginosa (C =) is 43 mm. Besides, in the series with Aspergillus flavus (setting [2]), the inhibition zone stood at 20 mm. In the series on Aspergillus flavus (setting [3]), this molecule registered an inhibition zone of 22 mm. This molecule also had an inhibition zone with Aspergillus flavus (setting [4]) of 29 mm. Moreover, the inhibition zone in series [1] (setting [2]) was found to be 27 mm. The same molecule returned an inhibition zone in series [1] (setting [3]) of 29 mm. The molecule further returned an inhibition zone in series [1] (setting [4]) of 49 mm. For the same molecule, in the series with different microbes, the antimicrobial activities entry is “excellent antimicrobial activities”.
